Laboratory results reported in ChEMBL document CHEMBL1150773, “Novel donepezil-based inhibitors of acetyl- and butyrylcholinesterase and acetylcholinesterase-induced beta-amyloid aggregation” (J Med Chem, 2008).

Tests used:
[1] = molecular target: T1, Acetylcholinesterase (Bos taurus, UniProt P23795)
T1 sequence (P23795 whole entry): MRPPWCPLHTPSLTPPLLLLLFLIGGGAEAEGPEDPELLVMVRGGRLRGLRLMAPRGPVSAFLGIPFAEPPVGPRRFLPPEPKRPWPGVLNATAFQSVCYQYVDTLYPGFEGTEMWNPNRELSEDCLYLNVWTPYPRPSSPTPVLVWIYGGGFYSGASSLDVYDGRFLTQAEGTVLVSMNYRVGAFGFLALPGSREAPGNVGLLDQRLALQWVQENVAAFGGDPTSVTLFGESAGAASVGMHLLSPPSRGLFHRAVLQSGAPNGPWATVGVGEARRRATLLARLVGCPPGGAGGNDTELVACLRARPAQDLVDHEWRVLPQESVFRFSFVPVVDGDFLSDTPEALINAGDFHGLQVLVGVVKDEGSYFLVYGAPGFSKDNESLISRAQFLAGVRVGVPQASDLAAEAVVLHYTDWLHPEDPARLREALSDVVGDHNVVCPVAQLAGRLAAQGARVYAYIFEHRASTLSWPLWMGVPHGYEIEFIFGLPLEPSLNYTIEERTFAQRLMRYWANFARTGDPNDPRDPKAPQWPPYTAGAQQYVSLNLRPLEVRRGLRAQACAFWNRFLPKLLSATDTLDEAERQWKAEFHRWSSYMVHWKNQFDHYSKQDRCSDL
Description: Inhibition of bovine erythrocyte AChE by Ellman's assay

[2] = molecular target: Cholinesterase (Homo sapiens, UniProt P06276)
Description: Inhibition of human serum BChE by Ellman's assay

[3] = molecular target: Acetylcholinesterase (Homo sapiens, UniProt P22303)
Sequence of Acetylcholinesterase (Homo sapiens, UniProt P22303) (P22303 whole entry): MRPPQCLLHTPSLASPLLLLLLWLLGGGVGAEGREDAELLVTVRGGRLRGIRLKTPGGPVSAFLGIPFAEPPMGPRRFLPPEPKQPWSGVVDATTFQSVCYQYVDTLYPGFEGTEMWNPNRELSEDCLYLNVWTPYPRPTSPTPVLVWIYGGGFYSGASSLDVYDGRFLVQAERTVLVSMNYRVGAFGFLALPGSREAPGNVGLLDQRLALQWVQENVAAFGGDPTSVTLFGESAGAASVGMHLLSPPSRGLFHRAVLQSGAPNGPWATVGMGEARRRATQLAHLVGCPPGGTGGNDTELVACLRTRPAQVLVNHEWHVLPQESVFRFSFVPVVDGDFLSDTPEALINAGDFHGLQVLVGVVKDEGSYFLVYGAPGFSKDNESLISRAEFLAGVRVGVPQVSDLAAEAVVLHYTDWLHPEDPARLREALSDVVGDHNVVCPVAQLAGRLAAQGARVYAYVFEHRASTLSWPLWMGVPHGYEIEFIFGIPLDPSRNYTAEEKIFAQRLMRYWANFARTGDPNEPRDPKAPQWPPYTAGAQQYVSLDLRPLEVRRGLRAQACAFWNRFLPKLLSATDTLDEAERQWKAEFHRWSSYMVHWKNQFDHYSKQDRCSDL
Description: Inhibition of human erythrocyte AChE by Ellman's assay

Sequence of Cholinesterase (P06276 whole entry): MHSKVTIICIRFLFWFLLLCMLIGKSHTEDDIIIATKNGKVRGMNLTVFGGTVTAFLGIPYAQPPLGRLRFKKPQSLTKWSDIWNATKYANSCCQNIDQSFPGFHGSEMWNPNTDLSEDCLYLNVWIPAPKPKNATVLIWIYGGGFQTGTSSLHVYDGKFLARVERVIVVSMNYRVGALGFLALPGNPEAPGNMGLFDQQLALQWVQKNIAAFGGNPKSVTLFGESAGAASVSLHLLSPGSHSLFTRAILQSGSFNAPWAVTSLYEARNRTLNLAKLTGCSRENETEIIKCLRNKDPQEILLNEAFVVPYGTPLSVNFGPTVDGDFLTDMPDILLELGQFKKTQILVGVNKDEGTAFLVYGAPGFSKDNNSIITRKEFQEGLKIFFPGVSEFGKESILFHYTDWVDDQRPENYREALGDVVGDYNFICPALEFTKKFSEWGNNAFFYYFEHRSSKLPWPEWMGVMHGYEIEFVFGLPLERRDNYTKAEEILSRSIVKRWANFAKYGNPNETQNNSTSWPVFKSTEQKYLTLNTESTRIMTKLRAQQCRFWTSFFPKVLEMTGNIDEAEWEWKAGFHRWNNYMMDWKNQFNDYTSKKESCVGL

Work on `COc1cc2c(cc1OC)CC(CC1CCN(Cc3ccccc3)CC1)C2` yielded an IC50 [1] of 1450 nM and an IC50 [2] of 6400 nM.
Compound `COc1cc2c(cc1OC)CC(CC1CCN(CCCNc3c4c(nc5ccccc35)CCCC4)CC1)C2` has an IC50 [3] of 2.16 nM, an IC50 [1] of 0.82 nM and an IC50 [2] of 7.25 nM.
`COc1cc2c(cc1OC)C(=O)C(CC1CCN(CCCNc3c4c(nc5cc(Cl)ccc35)CCCC4)CC1)C2` (configuration not stated) gave an IC50 [2] of 66.3 nM.
In the case of `COc1cc2c(cc1OC)CC(CC1CCN(CCNc3c4c(nc5cc(Cl)ccc35)CCCC4)CC1)C2`, the IC50 [3] is reported as 2.6 nM, the IC50 [1] is reported as 1.86 nM and the IC50 [2] is reported as 88.7 nM.
Work on `COc1cc2c(cc1OC)CC(CC1CCN(CCNc3c4c(nc5ccccc35)CCCC4)CC1)C2` yielded an IC50 [3] of 5.13 nM, an IC50 [1] of 2.28 nM and an IC50 [2] of 8.06 nM.
`COc1cc2c(cc1OC)C(=O)C(CC1CCN(CCNc3c4c(nc5cc(Cl)ccc35)CCCC4)CC1)C2` (configuration not stated) showed an IC50 [3] of 0.67 nM, an IC50 [1] of 0.57 nM and an IC50 [2] of 136 nM.
Work on `Nc1c2c(nc3cc(Cl)ccc13)CCCC2` yielded an IC50 [1] of 5.73 nM.
`COc1cc2c(cc1OC)CC(CC1CCN(CCCNc3c4c(nc5cc(Cl)ccc35)CCCC4)CC1)C2` gave an IC50 [3] of 1.06 nM, an IC50 [1] of 0.82 nM and an IC50 [2] of 72.7 nM.
`COc1cc2c(cc1OC)C(=O)C(CC1CCN(CCCNc3c4c(nc5ccccc35)CCCC4)CC1)C2` (configuration not stated) was tested, and the IC50 [3] was 0.88 nM, the IC50 [1] was 0.29 nM and the IC50 [2] was 12.3 nM.
